Common to all, as to assay: inhibition of tumour cell growth, NCI panel, 48 h
Assay [1] has as its system M14 melanoma.
The test system of assay [2] is IGROV1 ovarian.
For assay [3], the system named is SF-539 CNS.
The test system of assay [4] is SK-MEL-5 melanoma.
Assay [5] has as its system CCRF-CEM leukemia.
Assay [6] relates to SF-295 CNS.
Assay [7] deals with OVCAR-8 ovarian.
Assay [8] concerns HOP-62 NSCLC.
The test system of assay [9] is DU-145 prostate.
In assay [10] the test system is SF-268 CNS.
The test system of assay [11] is T-47D breast.
Assay [12] concerns SK-MEL-28 melanoma.
For assay [13], the system named is NCI-H460 lung.
Assay [14] relates to MDA-N.
In assay [15] the test system is 786-0 renal.
The subject of assay [16] is MDA-MB-231 breast.
The subject of assay [17] is TK-10 renal.
Assay [18] concerns UACC-257 melanoma.
Assay [19] has as its system NCI-H522 lung.
For assay [20], the system named is PC-3 prostate.

We go through eight compounds from PubChem BioAssay (NCI).

Each structure is given as a SMILES string.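 Growth conditions: 96-well plates. Treatment: test compound, 48 hours, 5 concentrations. Analysis: linear interpolation between bracketing concentrations; unreached endpoints set to highest concentration. At the TGI there is no net growth.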

Take `Cc1ccc(S(=O)(=O)N2CCCN(S(=O)(=O)c3ccc(C)cc3)CCN(S(=O)(=O)c3ccc(C)cc3)CCCSCC2)cc1`: the TGI in [1], in [2], in assay [3], in assay [4], in [5] and in assay [6] was over 100 µM in each case. Moreover, the TGI in [7], in assay [8], in assay [9], in assay [10], in assay [11] and in assay [12] was over 100 µM throughout. Besides, the TGI in [13], in assay [14], in assay [15] and in assay [16] was over 100 µM in each case.

With `CC(C)(C)c1cc(C(=O)Nc2cc(Br)c(Br)cc2S(N)(=O)=O)cc(C(C)(C)C)c1O`, the TGI is 35.9 µM in [1]; 26.6 µM in [2]; 32.7 µM in assay [3]; 25.5 µM in [17]; 25 µM in assay [4]; 26.6 µM in assay [5]. The TGI in assay [6] stood at 27.7 µM; in assay [7], 26.6 µM; in assay [18], 33.1 µM; in assay [8], 35.3 µM; in assay [9], 29.2 µM; in [19], 24.3 µM. Moreover, the TGI in [10] amounted to 29 µM; in [11] it was 15.6 µM; in assay [12] it was 26.2 µM; in assay [20] it was 22.9 µM; in [15], 23 µM; in [16], 26.4 µM.

With `Oc1ccc(-c2csc(NNC3=NC/C(=C/c4ccc5c(c4)OCO5)S3)n2)cc1O`, the TGI in assay [1] was over 100 µM; in assay [2], 65.3 µM; in assay [3] it was over 100 µM; in [17], 72.4 µM; in assay [4] it was over 100 µM; in assay [6], over 100 µM. In addition, the TGI in [7], in [18], in assay [8], in [9], in [11] and in assay [12] was over 100 µM in each case. Besides, the TGI in assay [13], in assay [20], in assay [14], in assay [15] and in assay [16] was over 100 µM throughout.

Regarding `Cc1c(C#N)c2nnn(-c3ccc(Cl)cc3)c(=O)n2c1-c1ccccc1`, the TGI in assay [1] was 14 µM; in assay [2] it was 16.9 µM; in assay [3], 0.6 µM; in assay [17], 55 µM; in assay [4], 1.3 µM; in assay [5] it was over 100 µM. Besides, the TGI was 1.03 µM in [6]; 11.2 µM in assay [7]; 33.6 µM in [18]; 3.73 µM in assay [8]; 8.44 µM in [9]; 0.207 µM in assay [19]. Moreover, the TGI in assay [10] was 14.8 µM; in assay [11], 45.2 µM; in assay [12], over 51.7 µM; in assay [13], 3.71 µM; in [20], 9.12 µM; in assay [15], 7.59 µM. Further, in [16], the TGI was found to be 0.987 µM.

For `COc1cc(-c2cn(S(=O)(=O)c3ccc(C)cc3)c3ccccc23)nc(-c2cn(S(=O)(=O)c3ccc(C)cc3)c3ccccc23)n1`, the TGI in [1] was 17 µM; in [3], 0.592 µM; in assay [17] it was over 100 µM; in assay [5] it was 24.7 µM; in assay [6], over 91.7 µM; in [7], over 100 µM. Further, the TGI in [18] is over 100 µM; in [8], over 100 µM; in assay [9], 1.85 µM; in assay [19], 0.506 µM; in assay [11], over 100 µM; in assay [12] it was over 55.7 µM. The TGI in [13] was over 100 µM; in [20], 38.5 µM; in assay [14], 1.88 µM; in assay [15], over 100 µM.

Consider `CC(C)(C)c1cc(CC2C(=O)c3ccccc3C2=O)cc(C(C)(C)C)c1O`, for which the TGI in assay [1] was 11.6 µM; in assay [2] it was 26.4 µM; in assay [3], 16.7 µM; in assay [17], 23.7 µM; in assay [4] it was 11.1 µM; in [5], 40.7 µM. In addition, the TGI in assay [6] came to 12.4 µM; in [7], 14.7 µM; in assay [18], 15.4 µM; in assay [8] it was 9.08 µM; in assay [9], 14.7 µM; in [19] it was 14.4 µM. The TGI in [10] was 17.1 µM; in assay [13], 43.3 µM; in assay [20] it was 10.3 µM; in [14], over 100 µM; in [15] it was 21.1 µM; in assay [16], 7.74 µM.

For the compound `CC[C@@]1(N(C)C)C(=O)OCc2c1cc1n(c2=O)Cc2cc3ccccc3nc2-1`, the TGI in assay [1] was over 100 µM; in assay [17] it was over 100 µM; in assay [4] it was over 100 µM; in [5], 96.3 µM; in assay [6], 37.2 µM; in [7], 31.2 µM. Also, the TGI in assay [18] is over 100 µM; in assay [8], 36.2 µM; in [9], 98.1 µM; in [19], 28.7 µM; in assay [10] it was 36.7 µM; in assay [11], 52.6 µM. Besides, the TGI is over 100 µM in assay [12]; 50.6 µM in [13]; over 100 µM in [20]; 73.7 µM in assay [15]; over 100 µM in assay [16].

Consider `COC(=O)c1c2c(cc3c1CC1(Cc4cc5c(c(C=O)c4C1)CCCC5)C3)CCCC2` (stereo unspecified), for which the TGI in [1], in [2], in assay [3], in assay [17], in assay [4] and in assay [6] was over 100 µM throughout. The TGI in [7], in [18], in assay [8], in assay [19], in assay [11] and in [20] was over 100 µM in each case. Besides, the TGI in [14], in assay [15] and in assay [16] was over 100 µM throughout.
